Measured values from patent US20080221086A1, “Novel Inhibitors of Glutaminyl Cyclase” (PROBIODRUG AG, priority 2006, published 2008).

Target: hQC (Homo sapiens, UniProt Q16769)
Experiment: Fluorometric assay of glutaminyl cyclase (QC) inhibition, H-Gln-βNA or H-Gln-AMC substrate
Format: biochemical
Conditions: read-out: IC50
How it was run: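 Ki values were obtained by fitting progress curves to a competitive-inhibition equation, and the rapid screen used 4 mM inhibitor with substrate at 1 KM. Both readouts coupled pyroglutamyl aminopeptidase at pH 8.0 and 30° C: H-Gln-βNA at 0.2 mM (ex/em 320/410 nm) or H-Gln-AMC (380/460 nm).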

hQC, sequence (Q16769 29-361): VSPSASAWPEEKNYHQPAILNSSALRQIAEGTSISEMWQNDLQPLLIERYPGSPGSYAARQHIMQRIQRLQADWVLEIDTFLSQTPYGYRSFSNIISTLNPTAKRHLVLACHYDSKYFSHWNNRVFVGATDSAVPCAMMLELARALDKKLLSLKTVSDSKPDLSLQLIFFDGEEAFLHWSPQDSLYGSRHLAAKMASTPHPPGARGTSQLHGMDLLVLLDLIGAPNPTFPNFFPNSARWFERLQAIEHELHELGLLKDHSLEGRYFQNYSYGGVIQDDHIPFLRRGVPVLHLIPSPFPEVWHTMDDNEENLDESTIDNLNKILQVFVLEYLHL

SMILES	IC50
COc1cc(C/N=C2\NC(=O)N(CCCn3ccnc3)C2c2ccccc2Cl)cc(OC)c1OC (centres unmarked) [Compound 26, 5-(2-Chloro-phenyl)-1-(3-imidazol-1-yl-propyl)-4-3,4,5-trimethoxy-benzylimino-imidazolidin-2-one]	6.7 µM
CCc1ccccc1/N=C1\NC(=O)N(c2ccc3[nH]cnc3c2)C1c1ccc2c(c1)OCO2 (centres unmarked) [Compound 287, 5-Benzo1,3dioxol-5-yl-1-(1H-benzoimidazol-5-yl)-4-2-ethyl-phenylimino-imidazolidin-2-one]	3.1 µM
O=C1N/C(=N\C(Cc2ccccc2)c2ccccc2)C(C2=CCCCC2)N1c1ccc2[nH]cnc2c1 (centres unmarked) [Compound 169, 1-(1H-Benzoimidazol-5-yl)-5-cyclohex-1-enyl-4-1,2-diphenyl-ethylimino-imidazolidin-2-one]	3.1 µM
CC1=CC(C)C(C2/C(=N/CCCN3CCCC3=O)NC(=O)N2c2ccc3[nH]cnc3c2)CC1 (centres unmarked) [Compound 275, 1-(1H-Benzoimidazol-5-yl)-5-(2,4-dimethyl-cyclohex-3-enyl)-4-3-(2-oxo-pyrrolidin-1-yl)-propylimino-imidazolidin-2-one]	4 µM
O=C1N/C(=N\C(c2ccccc2)c2ccccc2)C(c2ccccc2F)N1CCCn1ccnc1 (centres unmarked) [Compound 87, 4-Benzhydrylimino-5-(2-fluoro-phenyl)-1-(3-imidazol-1-yl-propyl)-imidazolidin-2-one]	4 µM
O=C1N/C(=N\C2CCc3ccccc32)CN1c1ccc2[nH]cnc2c1 (centres unmarked) [Compound 198, 1-(1H-Benzoimidazol-5-yl)-4-indan-1-ylimino-imidazolidin-2-one]	4 µM
O=C(C/N=C1/NC(=O)N(CCCn2ccnc2)C1C1CCC=CO1)N1CCc2ccccc2C1 (centres unmarked) [Compound 67, 4-2-(3,4-Dihydro-1H-isoquinolin-2-yl)-2-oxo-ethylimino-5-(3,4-dihydro-2H-pyran-2-yl)-1-(3-imidazol-1-yl-propyl)-imidazolidin-2-one]	4.9 µM
Cc1ccc2occ(C3/C(=N/C4CCc5ccccc54)NC(=O)N3c3ccc4[nH]cnc4c3)c(=O)c2c1 (centres unmarked) [Compound 213, 1-(1H-Benzoimidazol-5-yl)-4-indan-1-ylimino-5-(6-methyl-4-oxo-4H-chromen-3-yl)-imidazolidin-2-one]	0.004 µM
CN(C)CCCN=C1NC(=O)N(c2ccc3[nH]cnc3c2)C1c1ccc2ccccc2c1 (centres unmarked) [Compound 157, 1-(1H-Benzoimidazol-5-yl)-4-3-dimethylamino-propylimino-5-naphthalen-2-yl-imidazolidin-2-one]	5.8 µM
O=C1CCCN1CCC/N=C1/NC(=O)N(c2ccc3[nH]cnc3c2)C1c1cc(F)cc(F)c1 (centres unmarked) [Compound 335, 1-(1H-Benzoimidazol-5-yl)-5-(3,5-difluoro-phenyl)-4-3-(2-oxo-pyrrolidin-1-yl)-propylimino-imidazolidin-2-one]	1.3 µM
COc1cc(C/N=C2/NC(=O)N(CCCn3ccnc3)C2C2CCC=CO2)cc(OC)c1OC (centres unmarked) [Compound 24, 5-(3,4-Dihydro-2H-pyran-2-yl)-1-(3-imidazol-1-yl-propyl)-4-3,4,5-trimethoxy-benzylimino-imidazolidin-2-one]	6.7 µM
Cc1cccc(C2/C(=N/CC(=O)N3Cc4ccccc4C3)NC(=O)N2CCCn2ccnc2)c1O (centres unmarked) [Compound 12, 4-2-(1,3-Dihydro-isoindol-2-yl)-2-oxo-ethylimino-5-(2-hydroxy-3-methyl-phenyl)-1-(3-imidazol-1-yl-propyl)-imidazolidin-2-one]	9.6 µM
O=C(CN=C1NC(=O)N(c2ccc3nc[nH]c3c2)C1c1cc(Br)cc(Br)c1)N1CCSCC1 (centres unmarked) [Compound 179, 1-(3H-Benzoimidazol-5-yl)-5-(3,5-dibromo-phenyl)-4-2-oxo-2-thiomorpholin-4-yl-ethylimino-imidazolidin-2-one]	4 µM
O=C1N/C(=N/Cn2nnc3ccccc32)C(c2cc(F)cc(F)c2)N1c1ccc2[nH]cnc2c1 (centres unmarked) [Compound 148, 1-(1H-Benzoimidazol-5-yl)-4-benzotriazol-1-ylmethylimino-5-(3,5-difluoro-phenyl)-imidazolidin-2-one]	3.1 µM
O=C1N/C(=N/CCN2CCOCC2)C(c2cc(Br)cc(Br)c2)N1c1ccc2nc[nH]c2c1 (centres unmarked) [Compound 296, 1-(3H-Benzoimidazol-5-yl)-5-(3,5-dibromo-phenyl)-4-2-morpholin-4-yl-ethylimino-imidazolidin-2-one]	4.9 µM
Cc1ccc(C2/C(=N\Cc3ccc4[nH]ccc4c3)NC(=O)N2c2ccc3[nH]cnc3c2)cc1 (centres unmarked) [Compound 170, 1-(1H-Benzoimidazol-5-yl)-4-1H-indol-5-ylmethylimino-5-p-tolyl-imidazolidin-2-one]	0.004 µM
O=C1N/C(=N/C2CC2)C(C2CCC=CO2)N1CCCn1ccnc1 (centres unmarked) [Compound 1, 4-Cyclopropylimino-5-(3,4-dihydro-2H-pyran-2-yl)-1-(3-imidazol-1-yl-propyl)-imidazolidin-2-one]	8.6 µM
CCCC/N=C1/NC(=O)N(CCCn2ccnc2)C1c1cc(F)cc(F)c1 (centres unmarked) [Compound 37, 4-Butylimino-5-(3,5-difluoro-phenyl)-1-(3-imidazol-1-ylpropyl)-imidazolidin-2-one]	5.8 µM
O=C(CN=C1NC(=O)N(c2ccc3[nH]cnc3c2)C1c1cc2c(cc1Br)OCO2)N1CCCCC1 (centres unmarked) [Compound 327, 4-(2-Oxo-2-(piperidin-1-yl)ethylimino)-1-(1H-benzo[d]imidazol-5-yl)-5-(5-bromobenzo[d][1,3]dioxol-6-yl)imidazolidin-2-one]	0.004 µM
O=C1CCCN1CCC/N=C1/NC(=O)N(c2ccc3[nH]cnc3c2)C1c1ccc(Cl)c(F)c1 (centres unmarked) [Compound 323, 1-(1H-Benzoimidazol-5-yl)-5-(4-chloro-3-fluoro-phenyl)-4-3-(2-oxo-pyrrolidin-1-yl)-propylimino-imidazolidin-2-one]	0.4 µM
O=C1N/C(=N\CCc2cccs2)C(c2cccc(F)c2F)N1CCCn1ccnc1 (centres unmarked) [Compound 40, 5-(2,3-Difluoro-phenyl)-1-(3-imidazol-1-yl-propyl)-4-2-thiophen-2-yl-ethylimino-imidazolidin-2-one]	4.9 µM
O=C1N/C(=N\c2ccc(Oc3ccccc3)cc2)C(c2ccc(Cl)c(F)c2)N1CCCn1ccnc1 (centres unmarked) [Compound 101, 5-(4-Chloro-3-fluoro-phenyl)-1-(3-imidazol-1-yl-propyl)-4-4-phenoxy-phenylimino-imidazolidin-2-one]	7.6 µM
O=C1N/C(=N/CCCc2ccccc2)C(c2cc(Br)cc(Br)c2)N1c1ccc2[nH]cnc2c1 (centres unmarked) [Compound 303, 1-(1H-Benzoimidazol-5-yl)-5-(3,5-dibromo-phenyl)-4-3-phenyl-propylimino-imidazolidin-2-one]	0.004 µM
CC1=CC(C)C(C2/C(=N/CC(=O)N3CCC(O)CC3)NC(=O)N2c2ccc3nc[nH]c3c2)CC1 (centres unmarked) [Compound 316, 1-(3H-Benzoimidazol-5-yl)-5-(2,4-dimethyl-cyclohex-3-enyl)-4-2-(4-hydroxy-piperidin-1-yl)-2-oxo-ethylimino-imidazolidin-2-one]	7.6 µM
S=C1N/C(=N/Cc2ccccc2)C(c2ccc(Cl)cc2)N1c1ccc2[nH]cnc2c1 (centres unmarked) [Compound 251, 1-(1H-Benzoimidazol-5-yl)-4-benzylimino-5-(4-chloro-phenyl)-imidazolidine-2-thione]	4 µM
CCCCC1/C(=N\CCc2c[nH]c3ccccc23)NC(=O)N1CCCn1ccnc1 (centres unmarked) [Compound 59, 5-Butyl-1-(3-imidazol-1-yl-propyl)-4-2-(1H-indol-3-yl)-ethylimino-imidazolidin-2-one]	4.9 µM
